The values below come from ChEMBL document CHEMBL5523756, “Molecular Transformers: Adaptive Multitarget Ligands for Esterase-Induced Transition from Analgesics to Anesthetics” (J Med Chem, 2024).

SMILES strings stand for the structures.

Series [1] is described as follows: Toxicity in Sprague-Dawley rat assessed as alterations in QRS complex duration at 19 mg/kg administered as continuous infusion followed by maintenance at 3.25 mg/kg/min for 0 to 20 mins, 2.5 mg/kg/min for 20 to 30 mins and 2 mg/kg/min for 30 to 60 mins by electrocardiogram recording. It is filed as organism-based. The conditions noted are these: in vivo, other, 1 h, route par.

Series [2] is described as follows: Toxicity in Sprague-Dawley rat assessed as effect on end expiratory pause at 19 mg/kg administered as continuous infusion followed by maintenance at 3.25 mg/kg/min for 0 to 20 mins, 2.5 mg/kg/min for 20 to 30 mins and 2 mg/kg/min for 30 to 60 mins and measured every 5 mins for 60 mins by whole-body plethysmography. It is filed as organism-based. The following applies: in vivo, other, 1 h, route par.

The nature of series [3]: Drug metabolism in human liver microsomes assessed as propofol release by measuring half life at 1 mg/ml measured upto 360 mins by LC-MS analysis. It is filed as ADME, Microsome. The following applies: 6 h.
A short description of series [4]: Toxicity in Sprague-Dawley rat assessed as urea level at 19 mg/kg administered as continuous infusion followed by maintenance at 3.25 mg/kg/min for 0 to 20 mins, 2.5 mg/kg/min for 20 to 30 mins and 2 mg/kg/min for 30 to 60 mins. The following applies: in vivo, other, 1 h, route par. It is filed as organism-based.
The nature of series [5]: Toxicity in Sprague-Dawley rat assessed as effect on gastrointestinal function by measuring ink peristalsis at 19 mg/kg administered as continuous infusion followed by maintenance at 3.25 mg/kg/min for 0 to 20 mins, 2.5 mg/kg/min for 20 to 30 mins and 2 mg/kg/min for 30 to 60 mins and further administered with ink suspension and measured after 10 mins. The conditions noted are these: in vivo, other, 1.167 h, route par, time 70 min. In kind it is organism-based.

Series [6] in a line: Toxicity in Sprague-Dawley rat assessed as change in P-R interval at 19 mg/kg administered as continuous infusion followed by maintenance at 3.25 mg/kg/min for 0 to 20 mins, 2.5 mg/kg/min for 20 to 30 mins and 2 mg/kg/min for 30 to 60 mins and measured between 30 to 50 mins by electrocardiogram recording. The following applies: in vivo, other, time 30-50 min, route par. It is filed as organism-based.

Take `CCN(CC)CCOC(=O)Oc1c(C(C)C)cccc1C(C)C.Cl`: the Activity result in series [1] is listed as “Non-Toxic”; in series [2] it was “Non-Toxic”; in series [4], 11.03 mmol/L; in series [5], “Non-Toxic”; in series [6], “Toxic”. Besides, in series [3], the t1/2 worked out at 54.63 min.
